According to US20220317138A1, “METHODS FOR DETERMINING THE CONCENTRATION OF A CARBAPENEM ANTIBIOTIC IN A BIOLOGICAL SAMPLE” (priority 2019, published 2022):
Read-outs that look alike come from different tables or passages of the source. Numbered stars: 1 amine (or outer) side, 2 acyl side, 3 side chain; on linkers, the order of the positions; unused ones are H or OH. Bridge positions count the residues as written; N and C are the ends. Square brackets hold non-standard residues; d marks the D form. Peptide text beside a SMILES is read from it. * marks the point of attachment. pTerphenylCO(4''-OnC5H11) = CCCCCOc1ccc(-c2ccc(-c3ccc(C(=O)*)cc3)cc2)cc1; Orn(4R-OH,5R-OH) = O=C([C@H](C[C@@H](O)[C@@H](O)N[*:3])N[*:1])[*:2]; hTyr(3S-OH,4S-OH) = N[C@H](C(=O)O)[C@H](O)[C@@H](O)c1ccc(O)cc1; Pro(3S-OH,4S-Me) = C[C@H]1CN[C@H](C(=O)O)[C@H]1O; Hyp = O=C(O)[C@@H]1C[C@@H](O)CN1

Target: beta-lactamase class D OXA-48 (Klebsiella pneumoniae, UniProt Q6XEC0)
Type: biochemical
Conditions: for Average [meropenem]: average of three replicates
[1] = second drug alone in ultrafiltrated serum at 10 times recommended blood concentration, result expressed as meropenem concentration, theoretically zero
[2] = second drug alone in ultrafiltrated serum at 10 times recommended blood concentration, result expressed as meropenem concentration, theoretically zero, replicate 1
[3] = second drug alone in ultrafiltrated serum at 10 times recommended blood concentration, result expressed as meropenem concentration, theoretically zero, replicate 2
[4] = second drug alone in ultrafiltrated serum at 10 times recommended blood concentration, result expressed as meropenem concentration, theoretically zero, replicate 3
[5] = second drug alone in ultrafiltrated serum at 10 times recommended blood concentration, […]

Molecule | Average [meropenem] [1] | [meropenem] (mg/L) Replicates 1 [2] | [meropenem] (mg/L) Replicates 2 [3] | [meropenem] (mg/L) Replicates 3 [4] | [meropenem] (mg/L) Replicates 1 | [meropenem] (mg/L) Replicates 2 | [meropenem] (mg/L) Replicates 3 | Average [meropenem] [5] | interference with the method
OC(Cn1cncn1)(Cn1cncn1)c1ccc(F)cc1F [Fluconazole] | 0.07 mg/L | 0.02 mg/L | 0.10 mg/L | 0.11 mg/L | – | – | – | – | –
CC(C)(C)NCC(O)c1ccc(O)c(CO)c1 (stereo not drawn) [Salbutamol] | 0.09 mg/L | 0.16 mg/L | 0.07 mg/L | 0.05 mg/L | – | – | – | – | –
CN1C(=O)CN=C(c2ccccc2)c2cc(Cl)ccc21 [Diazepam] | 0.03 mg/L | 0.05 mg/L | 0.04 mg/L | 0.01 mg/L | – | – | – | – | –
C[C@H]1C[C@@H]2[C@H]([C@@H](O)C[C@@]3(C)[C@H]2CC[C@]3(O)C(=O)COC(=O)CCC(=O)O)[C@@]2(C)C=CC(=O)C=C12 [Solu-Medrol] | 0.01 mg/L | -0.01 mg/L | 0.02 mg/L | 0.01 mg/L | – | – | – | – | –
CCC1(CC)C(=O)NC(=S)NC1=O [Thiobarbital] | 0.10 mg/L | 0.12 mg/L | 0.11 mg/L | 0.09 mg/L | – | – | – | – | –
CCCCc1oc2ccccc2c1C(=O)c1cc(I)c(OCCN(CC)CC)c(I)c1 [Cordarone] | -0.16 mg/L | -0.16 mg/L | -0.15 mg/L | -0.18 mg/L | – | – | – | – | –
O=C1CN=C(c2ccccc2Cl)c2cc([N+](=O)[O-])ccc2N1 [Clonazepam] | 0.05 mg/L | 0.06 mg/L | 0.06 mg/L | 0.01 mg/L | – | – | – | – | –
O=C1NC(=O)C(c2ccccc2)(c2ccccc2)N1 [Diphantoïne] | – | – | – | – | -0.15 mg/L | -0.11 mg/L | 0.02 mg/L | -0.08 mg/L | –
NS(=O)(=O)c1cc(C(=O)O)c(NCc2ccco2)cc1Cl [Lasix] | -0.12 mg/L | -0.13 mg/L | -0.15 mg/L | -0.09 mg/L | – | – | – | – | –
Cc1[nH]c(=O)c(C#N)cc1-c1ccncc1 [Milrinone] | 0.09 mg/L | 0.14 mg/L | 0.06 mg/L | 0.06 mg/L | – | – | – | – | –
CNCC(O)c1ccc(O)c(O)c1 (stereo not drawn) [Adrenaline] | -0.10 mg/L | 0.06 mg/L | -0.37 mg/L | 0.00 mg/L | – | – | – | – | –
protamine | – | – | – | – | 0.64 mg/L | 0.69 mg/L | 0.72 mg/L | 0.68 mg/L | excepted for protamine
COC(=O)C1=C(C)NC(C)=C(C(=O)OCCN(C)Cc2ccccc2)C1c1cccc([N+](=O)[O-])c1 (stereo not drawn) [Rydene] | 0.04 mg/L | 0.06 mg/L | 0.00 mg/L | 0.06 mg/L | – | – | – | – | –
CC[C@@H](C(N)=O)N1CCCC1=O [Keppra] | -0.07 mg/L | -0.07 mg/L | -0.07 mg/L | -0.06 mg/L | – | – | – | – | –
COc1ccc(C[C@@H]2c3cc(OC)c(OC)cc3CC[N@+]2(C)CCC(=O)OCCCCCOC(=O)CC[N@@+]2(C)CCc3cc(OC)c(OC)cc3[C@H]2Cc2ccc(OC)c(OC)c2)cc1OC [Nimbex] | -0.03 mg/L | 0.01 mg/L | -0.04 mg/L | -0.08 mg/L | – | – | – | – | –
[Ca+2].[Cl-].[Cl-] [Calciclo] | – | – | – | – | 0.05 mg/L | -0.04 mg/L | -0.09 mg/L | -0.03 mg/L | –
C=CC[C@@H]1/C=C(\C)C[C@H](C)C[C@H](OC)[C@H]2O[C@@](O)(C(=O)C(=O)N3CCCC[C@H]3C(=O)O[C@H](/C(C)=C/[C@@H]3CC[C@@H](O)[C@H](OC)C3)[C@H](C)[C@@H](O)CC1=O)[C@H](C)C[C@@H]2OC.O [Prograft] | – | – | – | – | -0.07 mg/L | -0.06 mg/L | -0.02 mg/L | -0.05 mg/L | –
CCCCCOc1ccc(-c2ccc(-c3ccc(C(=O)N[C@H]4C[C@@H](O)[C@@H](O)NC(=O)[C@@H]5[C@@H](O)[C@@H](C)CN5C(=O)[C@H]([C@@H](C)O)NC(=O)[C@H]([C@H](O)[C@@H](O)c5ccc(O)cc5)NC(=O)[C@@H]5C[C@@H](O)CN5C(=O)[C@H]([C@@H](C)O)NC4=O)cc3)cc2)cc1 [Anidulafungin] ({pTerphenylCO(4''-OnC5H11)}-[Orn(4R-OH,5R-OH)]T[Hyp][hTyr(3S-OH,4S-OH)]T[Pro(3S-OH,4S-Me)]; lactam 1-C) | – | – | – | – | 0.09 mg/L | 0.06 mg/L | 0.14 mg/L | 0.10 mg/L | –
Cc1ncc2n1-c1ccc(Cl)cc1C(c1ccccc1F)=NC2 [Midazolam Braun] | – | – | – | – | -0.07 mg/L | -0.09 mg/L | -0.06 mg/L | -0.07 mg/L | –
C[C@]12CCC(=O)C=C1CC[C@@H]1[C@@H]2[C@@H](O)C[C@@]2(C)[C@H]1CC[C@]2(O)C(=O)COC(=O)CCC(=O)O [Solu-cortef] | -0.03 mg/L | -0.10 mg/L | 0.02 mg/L | 0.00 mg/L | – | – | – | – | –
CN1CC[C@]23c4c5ccc(O)c4O[C@H]2[C@@H](O)C=C[C@H]3[C@H]1C5 [Morphine] | -0.13 mg/L | -0.12 mg/L | -0.15 mg/L | -0.10 mg/L | – | – | – | – | –
NC[C@H](O)c1ccc(O)c(O)c1 [Noradrenaline] | -0.11 mg/L | -0.12 mg/L | -0.12 mg/L | -0.08 mg/L | – | – | – | – | –
CC(CCc1ccc(O)cc1)NCCc1ccc(O)c(O)c1 (stereo not drawn) [Dobutrex] | -0.11 mg/L | -0.07 mg/L | -0.11 mg/L | -0.14 mg/L | – | – | – | – | –
CCCC(CCC)C(=O)[O-].[Na+] [Dapakine] | – | – | – | – | -0.10 mg/L | -0.10 mg/L | -0.09 mg/L | -0.09 mg/L | –
COc1ccnc(C[S+]([O-])c2nc3cc(OC(F)F)ccc3[nH]2)c1OC (stereo not drawn) [Pantomed] | – | – | – | – | 0.02 mg/L | 0.01 mg/L | -0.05 mg/L | -0.01 mg/L | –
C[C@@H](c1ncncc1F)[C@](O)(Cn1cncn1)c1ccc(F)cc1F [Voriconazole] | 0.01 mg/L | 0.00 mg/L | -0.06 mg/L | 0.10 mg/L | – | – | – | – | –
Actrapid | – | – | – | – | 0.04 mg/L | 0.04 mg/L | 0.06 mg/L | 0.05 mg/L | –
CC[C@H](C)C[C@H](C)CCCCCCCCC(=O)N[C@H]1C[C@@H](O)[C@@H](NCCN)NC(=O)[C@@H]2[C@@H](O)CCN2C(=O)[C@H]([C@H](O)CCN)NC(=O)[C@H]([C@H](O)[C@@H](O)c2ccc(O)cc2)NC(=O)[C@@H]2C[C@@H](O)CN2C(=O)[C@H]([C@@H](C)O)NC1=O [Caspofungin] | – | – | – | – | 0.03 mg/L | 0.06 mg/L | 0.07 mg/L | 0.05 mg/L | –
NCCc1ccc(O)c(O)c1 [Dopamine] | -0.06 mg/L | -0.05 mg/L | -0.06 mg/L | -0.07 mg/L | – | – | – | – | –
